Source: PubChem BioAssay AID2060506 (Molecular Pharmacology Branch, DTP, NCI, 2025)

Tested on: 598228-144-R-J1-PDC complex spheroid viability
Assay: Anticancer human tumor 598228-144-R-J1-PDC patient-derived serous endometrial adenocarcinoma cell line growth inhibition [GQUAD]
Conditions: for IC50: curve of first compound; for viability, T/C: stronger effect = lower value; active = viability on the fitted dose curve at most 10% of control; inactive = the rest
How it was run: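 Multi-cell-type spheroids of tumor cells with HUVEC and mesenchymal stem cells, treated with drug combinations. Concentrations descend in half-log steps from near clinical Cmax, or from 10 microM where Cmax is unknown; viability read-out.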

[1] = second compound 0.0316 µM, first compound 0.0316 µM
[2] = second compound 0.0316 µM, first compound 0.1 µM
[3] = second compound 0.0316 µM, first compound 0.316 µM
[4] = second compound 0.0316 µM, first compound 1 µM
[5] = second compound 0.0316 µM, first compound 3.16 µM
[6] = second compound 0.0316 µM, first compound 10 µM
[7] = second compound 0.1 µM, first compound 0.0316 µM
[8] = second compound 0.1 µM, first compound 0.1 µM
[9] = second compound 0.1 µM, first compound 0.316 µM
[10] = second compound 0.1 µM, first compound 1 µM
[11] = second compound 0.1 µM, first compound 3.16 µM
[12] = second compound 0.1 µM, first compound 10 µM
[13] = second compound 0.316 µM, first compound 0.0316 µM
[14] = second compound 0.316 µM, first compound 0.1 µM
[15] = second compound 0.316 µM, first compound 0.316 µM
[16] = second compound 0.316 µM, first compound 1 µM
[17] = second compound 0.316 µM, first compound 3.16 µM
[18] = second compound 0.316 µM, first compound 10 µM
[19] = second compound 1 µM, first compound 0.0316 µM
[20] = second compound 1 µM, first compound 0.1 µM
[21] = second compound 1 µM, first compound 0.316 µM
[22] = second compound 1 µM, first compound 1 µM
[23] = second compound 1 µM, first compound 3.16 µM
[24] = second compound 1 µM, first compound 10 µM
[25] = second compound 3.16 µM, first compound 0.0316 µM
[26] = second compound 3.16 µM, first compound 0.1 µM
[27] = second compound 3.16 µM, first compound 0.316 µM
[28] = second compound 3.16 µM, first compound 1 µM
[29] = second compound 3.16 µM, first compound 3.16 µM
[30] = second compound 3.16 µM, first compound 10 µM
[31] = second compound 10 µM, first compound 0.0316 µM
[32] = second compound 10 µM, first compound 0.1 µM
[33] = second compound 10 µM, first compound 0.316 µM
[34] = second compound 10 µM, first compound 1 µM
[35] = second compound 10 µM, first compound 3.16 µM
[36] = second compound 10 µM, first compound 10 µM
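Note: spheroids exposed to the agents for one week before reading.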
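Throughout, for viability, T/C: percent of vehicle DMSO control viability so 100% = untreated growth.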

O=C(NO)c1cnc(N2CCN(S(=O)(=O)c3ccc4ccccc4c3)CC2)nc1 + CN(C)c1ccc(Nc2c3ccc(NC(=O)CCN4CCCC4)cc3nc3cc(NC(=O)CCN4CCCC4)ccc23)cc1
104 nM: IC50 (second compound 0.1 µM)
72.9 nM: IC50 (second compound 0.0316 µM)
100 nM: IC50 (second compound 0.316 µM)
inactive: viability, T/C [1] 79.4% | viability, T/C [2] 35.2% | viability, T/C [3] 26.3% | viability, T/C [7] 87.8% | viability, T/C [8] 49.5% | viability, T/C [9] 24% | viability, T/C [13] 81.3% | viability, T/C [14] 49.5% | viability, T/C [15] 18.3% | viability, T/C [19] 92.3% | viability, T/C [20] 56.6% | viability, T/C [21] 21.2% | viability, T/C [25] 108% | viability, T/C [26] 38.9% | viability, T/C [31] 73.7% | viability, T/C [32] 19.8%
83.2 nM: IC50 (second compound 3.16 µM)
active: viability, T/C [4] 0.43% | viability, T/C [5] 0.48% | viability, T/C [6] 0.27% | viability, T/C [10] 0.39% | viability, T/C [11] 0.39% | viability, T/C [12] 0.25% | viability, T/C [16] 0.5% | viability, T/C [17] 0.26% | viability, T/C [18] 0.42% | viability, T/C [22] 0.43% | viability, T/C [23] 0.22% | viability, T/C [24] 0.38% | viability, T/C [27] 8.39% | viability, T/C [28] 0.37% | viability, T/C [29] 0.29% | viability, T/C [30] 0.29% | viability, T/C [33] 5.5% | viability, T/C [34] 0.39% | viability, T/C [35] 0.39% | viability, T/C [36] 0.34%
125 nM: IC50 (second compound 1 µM)
52.6 nM: IC50 (second compound 10 µM)

CC1COCCN1c1cc(-c2ccnn2C)c2ccnc(-c3ccn[nH]3)c2n1 (stereo not drawn) + Cc1[nH]c2ccc(F)cc2c1-c1nc2c3cccnc3c3ncccc3c2[nH]1
< 31.6 nM: IC50 (second compound 1 µM) | IC50 (second compound 3.16 µM) | IC50 (second compound 10 µM)
78.2 nM: IC50 (second compound 0.316 µM)
209 nM: IC50 (second compound 0.0316 µM)
221 nM: IC50 (second compound 0.1 µM)
inactive: viability, T/C [1] 92.4% | viability, T/C [2] 63.8% | viability, T/C [3] 41.3% | viability, T/C [4] 43.3% | viability, T/C [5] 37.2% | viability, T/C [6] 36% | viability, T/C [7] 71.1% | viability, T/C [8] 55.7% | viability, T/C [9] 41.6% | viability, T/C [10] 50.2% | viability, T/C [11] 52.6% | viability, T/C [12] 44% | viability, T/C [13] 59% | viability, T/C [14] 47.7% | viability, T/C [15] 45.7% | viability, T/C [16] 47.2% | viability, T/C [17] 43.9% | viability, T/C [18] 49.1% | viability, T/C [19] 44.3% | viability, T/C [20] 41.5% | viability, T/C [21] 37.6% | viability, T/C [22] 41.8% | viability, T/C [23] 45.1% | viability, T/C [24] 36.5% | viability, T/C [25] 36.9% | viability, T/C [26] 36.9% | viability, T/C [27] 39.7% | viability, T/C [28] 30.7% | viability, T/C [29] 24.9% | viability, T/C [30] 22.4% | viability, T/C [31] 47% | viability, T/C [32] 42.7% | viability, T/C [33] 41.4% | viability, T/C [34] 36.8% | viability, T/C [35] 44.1% | viability, T/C [36] 36.5%

CC1COCCN1c1cc(C2(S(C)(=N)=O)CC2)nc(-c2ccnc3[nH]ccc23)n1 (stereo not drawn) + Cc1[nH]c2ccc(F)cc2c1-c1nc2c3cccnc3c3ncccc3c2[nH]1
> 10000 nM: IC50 (second compound 0.0316 µM)
551 nM: IC50 (second compound 1 µM)
5230 nM: IC50 (second compound 0.1 µM)
629 nM: IC50 (second compound 10 µM)
914 nM: IC50 (second compound 0.316 µM)
< 31.6 nM: IC50 (second compound 3.16 µM)
inactive: viability, T/C [1] 114% | viability, T/C [2] 108% | viability, T/C [3] 89.2% | viability, T/C [4] 69.9% | viability, T/C [5] 73% | viability, T/C [6] 50% | viability, T/C [7] 106% | viability, T/C [8] 100% | viability, T/C [9] 97.7% | viability, T/C [10] 87.1% | viability, T/C [11] 56.9% | viability, T/C [12] 40.5% | viability, T/C [13] 97.3% | viability, T/C [14] 94.4% | viability, T/C [15] 69% | viability, T/C [16] 47% | viability, T/C [17] 52.9% | viability, T/C [18] 43.3% | viability, T/C [19] 58% | viability, T/C [20] 59.7% | viability, T/C [21] 58.9% | viability, T/C [22] 40.5% | viability, T/C [23] 45.1% | viability, T/C [24] 34.5% | viability, T/C [25] 36.9% | viability, T/C [26] 42.2% | viability, T/C [27] 39.2% | viability, T/C [28] 36.8% | viability, T/C [29] 39.7% | viability, T/C [30] 35.6% | viability, T/C [31] 60.3% | viability, T/C [32] 53.8% | viability, T/C [33] 59.4% | viability, T/C [34] 43.1% | viability, T/C [35] 44.6% | viability, T/C [36] 41.5%

COc1ccc([C@@H](O)c2cc(-c3ncnc4cc(N5CCOCC5)ccc34)c(F)cc2Cl)nn1 + Cc1[nH]c2ccc(F)cc2c1-c1nc2c3cccnc3c3ncccc3c2[nH]1
222 nM: IC50 (second compound 1 µM)
< 31.6 nM: IC50 (second compound 3.16 µM)
1290 nM: IC50 (second compound 0.316 µM)
3140 nM: IC50 (second compound 0.0316 µM)
1220 nM: IC50 (second compound 0.1 µM)
112 nM: IC50 (second compound 10 µM)
inactive: viability, T/C [1] 96.8% | viability, T/C [2] 114% | viability, T/C [3] 87.8% | viability, T/C [4] 76.7% | viability, T/C [5] 50.4% | viability, T/C [6] 29.1% | viability, T/C [7] 112% | viability, T/C [8] 96% | viability, T/C [9] 62.6% | viability, T/C [10] 59.5% | viability, T/C [11] 35% | viability, T/C [12] 26% | viability, T/C [13] 82.2% | viability, T/C [14] 71.5% | viability, T/C [15] 72.8% | viability, T/C [16] 50.5% | viability, T/C [17] 40.8% | viability, T/C [18] 32.4% | viability, T/C [19] 64.2% | viability, T/C [20] 67.4% | viability, T/C [21] 37.4% | viability, T/C [22] 36.9% | viability, T/C [23] 27.4% | viability, T/C [24] 18.8% | viability, T/C [25] 48.3% | viability, T/C [26] 44.9% | viability, T/C [27] 34.1% | viability, T/C [28] 21.1% | viability, T/C [29] 18.9% | viability, T/C [30] 15.2% | viability, T/C [31] 61.5% | viability, T/C [32] 49.6% | viability, T/C [33] 43.9% | viability, T/C [34] 31.1% | viability, T/C [35] 25.6% | viability, T/C [36] 22.5%
